From PubChem BioAssay (NCI)
Several values for one entry are separate records, joined by “and”; a condition that tells them apart may be missing. Equal entries are not always repeated.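 In this assay, cells in 96-well plates receive the compound at five concentrations for 48 hours. Endpoints are linearly interpolated between the surrounding concentrations. Here, GI50 denotes the concentration required for 50% inhibition of growth. Definition used: TGI = concentration required for complete inhibition of growth.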

Tests used:
Assay in all cases: NCI tumour cell line growth inhibition, 48 h
UO-31 renal = test system: UO-31 renal
EKVX NSCLC = test system: EKVX NSCLC
UACC-62 melanoma = test system: UACC-62 melanoma
HCT-116 colon = test system: HCT-116 colon
CCRF-CEM leukemia = test system: CCRF-CEM leukemia
SR leukemia = test system: SR leukemia
NCI-H460 lung = test system: NCI-H460 lung
SK-MEL-28 melanoma = test system: SK-MEL-28 melanoma
U251 CNS = test system: U251 CNS
HOP-92 NSCLC = test system: HOP-92 NSCLC

Structure (SMILES)	TGI (UO-31 renal)	TGI (EKVX NSCLC)	TGI (UACC-62 melanoma)	TGI (HCT-116 colon)	TGI (CCRF-CEM leukemia)	TGI (SR leukemia)	TGI (NCI-H460 lung)	TGI (SK-MEL-28 melanoma)	TGI (U251 CNS)	GI50 (UO-31 renal)	GI50 (UACC-62 melanoma)	GI50 (HCT-116 colon)	GI50 (CCRF-CEM leukemia)	GI50 (SR leukemia)	GI50 (HOP-92 NSCLC)	TGI (HOP-92 NSCLC)	GI50 (NCI-H460 lung)	GI50 (SK-MEL-28 melanoma)	GI50 (U251 CNS)	GI50 (EKVX NSCLC)
COC(=O)C(Cc1nc2ccc(Cl)cc2[nH]c1=O)C(=O)C(=O)Nc1ccccc1[N+](=O)[O-] (centres undefined)	> 100 µM	> 100 µM	> 100 µM	> 100 µM	> 100 µM	> 100 µM	> 100 µM	> 100 µM	> 100 µM	–	–	–	–	–	–	–	–	–	–	–
CN(C)c1ccc(C(N)=O)cn1	> 100 µM	> 100 µM	> 100 µM	> 100 µM	> 100 µM	> 100 µM	> 100 µM	> 100 µM	> 100 µM	–	–	–	–	–	–	–	–	–	–	–
CCCCCc1c(C)[nH]c(/C=C2\N=C(c3ccc[nH]3)C=C2Oc2ccc(Cl)cc2)c1C	0.32 µM and 0.222 µM	–	0.163 µM and 0.0884 µM	1.22 µM and 1.18 µM	> 100 µM	> 100 µM	12 µM	1.53 µM and 0.943 µM	0.749 µM and 0.192 µM	0.142 µM and 0.0599 µM	0.0418 µM and 0.0299 µM	0.0392 µM and 0.0147 µM	0.0392 µM and < 0.01 µM	0.0372 µM and < 0.01 µM	0.0417 µM and 0.0176 µM	0.314 µM and 0.361 µM	0.0545 µM and 0.024 µM	0.169 µM and 0.0742 µM	0.0658 µM and 0.019 µM	–
C[C@H](CSC(=O)c1ccccc1)C(=O)N1c2ccccc2C[C@H]1C(=O)O	> 100 µM	> 100 µM	> 100 µM	> 100 µM	> 100 µM	> 100 µM	> 10 µM	> 100 µM	> 100 µM	–	–	–	–	–	–	–	–	–	–	–
CCOc1ccc(NC(=O)CC2SC(N)=NC2=O)cc1 (centres undefined)	> 100 µM	> 100 µM	> 100 µM	> 100 µM	> 100 µM	–	> 100 µM	> 100 µM	> 100 µM	–	–	–	–	–	–	> 100 µM	–	–	–	–
CCOC(=O)c1cnn(-c2ccnc3c(C(F)(F)F)cccc23)c1N	> 100 µM	> 100 µM	> 100 µM	> 100 µM	> 100 µM	–	> 100 µM	> 100 µM	> 100 µM	> 100 µM	> 100 µM	> 100 µM	> 100 µM	–	29.6 µM	> 100 µM	> 100 µM	> 100 µM	> 100 µM	> 100 µM
Fc1ccc(Nc2nc(NCCNc3ccnc4cc(Cl)ccc34)nc(N3CCOCC3)n2)cc1	16.5 µM	–	7.35 µM	17 µM	16.3 µM	7.6 µM	14 µM	3.25 µM	17.5 µM	3.52 µM	2.65 µM	4.82 µM	0.457 µM	2.44 µM	1.03 µM	6.88 µM	3.44 µM	1.83 µM	4.72 µM	–
CN(C)C(=O)C1CCC(=C2C(=O)OC(C)(C)OC2=O)N1C (centres undefined)	> 100 µM	> 100 µM	> 100 µM	> 100 µM	> 100 µM	–	> 100 µM	> 100 µM	> 100 µM	–	–	–	–	–	–	> 100 µM	–	–	–	–
CCOC(=O)N1CCN(S(=O)(=O)c2oc(-c3ccc(Cl)cc3)nc2C#N)CC1	2.88 µM	27.2 µM	12.7 µM	3.7 µM	5.13 µM	–	46 µM	4.23 µM	19.6 µM	1.54 µM	3.07 µM	1.74 µM	0.36 µM	–	1.8 µM	3.75 µM	15 µM	2.12 µM	5.49 µM	9.71 µM
COc1ccc(/C=C2\CCCC3=C2NC(C)=NC3c2ccc(OC)c(OC)c2)cc1OC (centres undefined)	> 100 µM	–	> 100 µM	22.1 µM	> 100 µM	> 100 µM	> 100 µM	> 100 µM	> 100 µM	31.1 µM	12.9 µM	2.39 µM	2.75 µM	1.99 µM	18.9 µM	92.6 µM	47.7 µM	> 100 µM	23.4 µM	–
C/C1=C\CC[C@@](C)(O)[C@@H]2CC3[C@@H](OC(=O)C34CC4)[C@@H](O2)[C@H](C)CCC1 (some centres undefined)	29.9 µM	–	56.4 µM	30.1 µM	> 100 µM	> 100 µM	24.7 µM	> 100 µM	42.7 µM	15.3 µM	21.3 µM	16.5 µM	3.95 µM	19.9 µM	38.9 µM	> 100 µM	12 µM	61.7 µM	19.9 µM	–
Cc1c2ccncc2c(C)c2c1[nH]c1ccc(OC(C)(C)C)cc12	4.3 µM	36.2 µM	5.43 µM	3.36 µM	5.77 µM	–	–	3.77 µM	10.1 µM	–	–	–	–	–	–	25.1 µM	–	–	–	–
COc1cc(Oc2c(O)c(C)c(OC)c(C(C)=O)c2O)c(C(C)=O)c(O)c1C	> 100 µM	–	> 100 µM	> 100 µM	> 100 µM	> 100 µM	> 100 µM	> 100 µM	> 100 µM	–	–	–	–	–	–	> 100 µM	–	–	–	–
Cc1cn2c(/C=N/N/C(N)=N\N)c(-c3ccc(Cl)c([N+](=O)[O-])c3)nc2s1	22.5 µM	15.6 µM	1.67 µM	–	–	–	–	–	1.63 µM	9.45 µM	0.883 µM	–	–	–	2.55 µM	13.3 µM	–	–	0.914 µM	3.99 µM
CC1=NN(C(=O)c2ccc(Cl)cc2)C(=O)/C1=C/c1cccc([N+](=O)[O-])c1	> 100 µM	> 100 µM	> 100 µM	> 100 µM	> 100 µM	–	> 100 µM	> 100 µM	> 100 µM	–	–	–	–	–	–	> 100 µM	–	–	–	–
COc1ccc2c(c1)nc(N)c1c3cccnc3cn21	17.9 µM	> 100 µM	22.1 µM	> 36.7 µM	> 100 µM	22.4 µM	1.77 µM	–	14.6 µM	0.0776 µM	0.0541 µM	0.0471 µM	0.039 µM	0.0339 µM	–	–	0.0923 µM	–	0.0474 µM	2.91 µM
CC(C)=CC(=O)CC(=O)C(=O)Nc1ccc(Cl)c(Cl)c1	> 100 µM	> 100 µM	> 100 µM	> 100 µM	> 100 µM	> 100 µM	> 100 µM	> 100 µM	> 100 µM	–	–	–	–	–	–	–	–	–	–	–
